# Data as given in patent US9375530B2 (Allergan, Inc., priority 2007, dated 2016).
# Where two headings read alike, the source gives them in different places.
# Tests used:
# kidney water channels = conditions: as illustrated in FIG. 1
# [1] = in vivo, cited from earlier work; for % Bioavailability: human
# [2] = human, in vivo; cited from earlier work
# [3] = in vivo; cited from earlier work
smiles,measurement,setting,value
"NC(=O)CC[C@@H]1NC(=O)[C@H](Cc2ccccc2)NC(=O)[C@H](Cc2ccc(O)cc2)NC(=O)CCSSC[C@@H](C(=O)N2CCC[C@H]2C(=O)N[C@H](CCCN=C(N)N)C(=O)NCC(N)=O)NC(=O)[C@H](CC(N)=O)NC1=O [desmopressin, 1-desamino-8-D-arginine vasopressin]",blood concentration sufficient to activate kidney water channels and induce an antidiuretic effect,kidney water channels,about 0.8 pg/ml
same,% Bioavailability,[1]; po,0.1-0.15%
same,% Bioavailability,[1]; sc,Subcutaneous (±90) %
same,ranges for peak blood levels,[1]; po,10-20 fold
same,half life,[2],1.5 to 2.0 h
same,undesirable side-effects,[3],high incidences of hyponatremia
